Test results from publication PMC10641831 (Journal of Medicinal Chemistry, 2023).
Values joined by “and” are separate entries in the source; they are usually repeats but may differ in a detail not shown here. Equal values may be shown once. Read-outs that look alike come from different tables or passages of the source. Numbered stars: 1 amine (or outer) side, 2 acyl side, 3 side chain; on linkers, the order of the positions; unused ones are H or OH. Bridge positions count the residues as written; N and C are the ends. Square brackets hold non-standard residues; d marks the D form. Peptide text beside a SMILES is read from it. AMPB(E) = O=C(c1ccc(/N=N/c2ccc(CN[*:1])cc2)cc1)[*:2]; X2 = O=C(c1ccc(/N=N\c2ccc(CN[*:1])cc2)cc1)[*:2]

Assays:
hV1aR [1] = biological target: T1, hV1aR (Homo sapiens, UniProt P37288); experiment: IP-One accumulation assay, agonist function, HEK293 cells expressing hV1aR; assay type: cell-based; conditions: for agonist activity at V1aR: concentrations up to 10 μM
T1 construct: expressed in transfected cells
T1 sequence (P37288 whole entry): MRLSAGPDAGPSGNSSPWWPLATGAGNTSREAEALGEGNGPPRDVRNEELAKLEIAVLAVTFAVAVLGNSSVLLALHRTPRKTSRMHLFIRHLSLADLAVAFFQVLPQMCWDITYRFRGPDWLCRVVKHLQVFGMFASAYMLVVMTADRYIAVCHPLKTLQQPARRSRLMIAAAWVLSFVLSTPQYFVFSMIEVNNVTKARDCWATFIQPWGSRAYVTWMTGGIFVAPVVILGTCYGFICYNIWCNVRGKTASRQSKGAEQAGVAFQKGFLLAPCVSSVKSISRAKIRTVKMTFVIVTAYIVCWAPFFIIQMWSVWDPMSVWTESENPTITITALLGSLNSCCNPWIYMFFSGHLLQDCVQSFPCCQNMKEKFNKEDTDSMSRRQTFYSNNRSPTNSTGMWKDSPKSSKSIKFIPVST

hV1bR = biological target: T2, hV1bR (Homo sapiens, UniProt P47901); experiment: IP-One accumulation assay, agonist function, HEK293 cells expressing hV1bR; assay type: cell-based; conditions: for Emax: HEK293, relative to the effect of VP, read-out: V1bR Emax ± SEM; for V1bR E/Z ratio EC50: ratio of EC50 of E- and Z-isomer; for reduced potency at V1bR compared to VP: EC50 vs VP
T2 construct: expressed in transfected cells
T2 sequence (P47901 1-424): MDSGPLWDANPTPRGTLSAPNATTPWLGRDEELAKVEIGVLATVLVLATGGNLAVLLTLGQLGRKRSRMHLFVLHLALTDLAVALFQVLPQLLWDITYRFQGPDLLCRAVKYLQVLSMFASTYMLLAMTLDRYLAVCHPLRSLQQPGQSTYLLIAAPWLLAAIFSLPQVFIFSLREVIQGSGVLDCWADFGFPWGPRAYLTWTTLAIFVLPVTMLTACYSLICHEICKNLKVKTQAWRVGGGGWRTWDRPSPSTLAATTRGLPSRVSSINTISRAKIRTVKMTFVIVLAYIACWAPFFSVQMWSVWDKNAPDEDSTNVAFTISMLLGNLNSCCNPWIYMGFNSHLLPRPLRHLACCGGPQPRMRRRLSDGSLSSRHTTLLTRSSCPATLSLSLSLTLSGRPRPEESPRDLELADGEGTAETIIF

[2] = Thermal half-life of the Z-isomer (UV/vis, 96-well plate); assay type: physicochemical; conditions: for t1/2 (thermal half-life, Figure S50): 50 µM in HEPES buffer + 0.25% DMSO, pre-irradiated with 340 nm; for t1/2 (thermal half-life Z to E): preirradiation with 340 nm
Text: All photoprobes were investigated regarding their photophysical properties in aqueous buffer (pH 7.5), mimicking the conditions of the biological functional assays. […] Upon irradiation with 340 nm light for 10 s and monitoring via UV/vis spectroscopy, all compounds could be switched to the Z-isomer, reaching the photostationary state (PSS). Compounds 8–17 containing azobenzene could be switched back to the E-isomer by irradiation at 420 nm for 60 s. Compounds 18 and 19 containing arylazopyrazole could be reverted to the E isomer by using 528 nm light. […] The PSS, when switched to the Z-isomer, was consistently good, with a PSS of 81–95%. […] The thermal half-lives of 10 and 12 were also measured at 37 °C, representing the temperature during the biological assays. As expected, the thermal half-lives decreased, however, the ratio of E and Z isomers remained stable during the incubation period of the biological assays (1 h).
Starting materials and commercial reagents were purchased from Acros, Alfa Aesar, Fisher, Fluka, Fluorochem, Merck (Sigma-Aldrich), TCI and VWR and were used without further purification. Solvents were used in p.a. quality or dried according to common procedures if necessary. All reactions with oxygen- or moisture-sensitive reagents were carried out in glassware that was dried before use by heating under vacuum. Dry nitrogen or argon was used for an inert gas atmosphere. All NMR spectra were measured at room temperature (20 °C) using a Bruker Avance 400 (400 MHz for ^1H and 101 MHz for ^13C) or a Bruker Avance 600 (600 MHz for ^1H and 151 MHz for ^13C) NMR spectrometer. All chemical shifts are reported in δ-scale as parts per million [ppm] (multiplicity, coupling constant J, number of protons) relative to the solvent residual peaks. Coupling constants J are given in hertz [Hz]. Abbreviations used for signal multiplicity: ^1H NMR: s = singlet, d = doublet, dd = doublet of doublets, ddd = doublet of doublets of doublets, dt = doublet of triplets, t = triplet, td = triplet of doublets, q = quartet, and m = multiplet. All mass spectra were recorded on an Agilent Q-TOF 6540 UHD, Finnigan MAT SSQ 710 A, Jeol AccuTOF GCX or ThermoQuest Finnigan TSQ 7000 spectrometer. Absorption spectra were recorded on an UV/vis Agilent Cary 50 spectrometer. Thermal half-lives were measured on a 96-well plate in a Thermo Scientific Multiskan Spectrum. Analytical TLC was performed on silica gel-coated alumina plates (MN precoated TLC-sheets ALUGRAM Xtra SIL G/UV254). Visualization was done using UV light (254 or 366 nm) or staining with ninhydrin solution. Column chromatography was performed on a Biotage Isolera One automated flash purification system with a UV/vis detector. Analytical RP-HPLC was carried out on an Agilent 1220 Infinity LC System (column: P/No 00F-4251-B0, Phenomenex Luna 3 μm C18(2) 100 Å, LC column 150 mm × 2.0 mm). Purification by preparative HPLC was conducted on a preparative HPLC Agilent 1260 Infinity LC System [column: P/No 00G-4253-P0-AX, Phenomenex Luna 10 μm C18(2) 100 Å, LC column 250 mm × 21.2 mm]. The eluent systems were used as specified. After the purification process, solvents were removed by lyophilization. Switching experiments were done with a 340 nm LED (SSC VIOSYS CUD4AF1B, 500 mA, 55 mW), 420 nm LED (ILH-XC01-S410-SC211-WIR200, 800 mA, 440 mW), and 528 nm LED (OSRAM Oslon SSL 80 green, 500 mA, 34 mW). Purity of all photoprobes was >95% as determined by analytical RP-HPLC at 220 nm in DMSO.
1.3.4. Thermal Half-lives
Thermal half-lives were measured in a 96-well plate in a Thermo Scientific Multiskan® Spectrum at 25 °C (and at 37 °C for compounds 10 and 12). The solutions (50 µM in HEPES buffer + 0.25% DMSO) were pre-irradiated with 340 nm. The absorption at 335 nm was measured every 3 h. The data was analyzed using Origin 2021.
0,7 1/2 ExpDec1 Fit of Sheet1 B
Modell ExpDec1 0,35 Modell ExpDec1
0,6 Gleichung y = A 1 *e xp (-x/t1 ) + y0 Gleichung y = A 1 *e xp (-x/t1 ) + y0 […]

[3] = Photostationary state by analytical C18-RP-HPLC; assay type: physicochemical; conditions: for PSS (E → Z): irradiation with 340 nm, HEPES buffer; for PSS (Z → E): irradiation with 420 nm (8–17) or 528 nm (18, 19)
Method: All photoprobes were investigated regarding their photophysical properties in aqueous buffer (pH 7.5), mimicking the conditions of the biological functional assays.
1.3.2. Photostationary States
Photostationary states (PSS) were measured on analytical C18-RP-HPLC (flow: 0.3 mL/min, solvent A: H2O (0.05% TFA), solvent B: MeCN). To determine the PSS of the photoswitches, the samples (in 0.1 mM in HEPES buffer + 1% DMSO, pH 7.5) were irradiated first with 340 nm to get the Z-isomer. Afterwards, the sample was irradiated with 420 nm (8-17) or 528 nm (18 and 19), respectively, to get back to the E-isomer. The samples were measured at the isosbestic points.

hV1aR [4] = biological target: T1, hV1aR; experiment: IP-One accumulation assay, antagonist function (VP displacement) at hV1aR; assay type: cell-based; conditions: coaddition of VP 1 nM; for antagonistic activity at V1aR: 10 and 100 μM; for VP displacement: at 10 μM
Method: This was done via coaddition and prior mixing of VP (EC60 of 1 nM) and the potential antagonists 13–19. […] IP1 accumulation was measured at concentrations of 10 and 100 μM for peptides 13–19.
Figure 5 Functional screen for antagonistic activities at V1aR. […] Data represent mean ± SEM from at least three independent experiments, each performed in triplicate.
To assess the antagonistic properties of compounds 13–19, a 4-fold concentrated dilution series in stimulation buffer was prepared for each isomer. Separately, a 4-fold concentrated VP solution was prepared (4 nM, final concentration 1 nM). A 1:1 mixture of VP solution and the diluted ligand was made to end up with a 2-fold concentration of both compounds. The following steps were conducted as described above for the agonist mode. The FRET ratios (665/615 nm) were calculated and obtained values were normalized to the basal activity value (0%) and maximal effect of VP (100%). Atosiban was used as a positive control.

[5] = IP-One, stable HEK293 hV1aR, μM, read-out: V1aR EC50
[6] = IP-One, stable HEK293 hV1bR, read-out: V1bR EC50 ± SEM
[7] = supplementary CSV, µM, read-out: activity E-isomer V1aR
[8] = supplementary CSV, µM, read-out: activity Z-isomer V1aR
[9] = supplementary CSV, read-out: activity E-isomer V1bR

| Molecule | EC50 (hV1aR [1]; [5]) | Emax (hV1bR) | EC50 (hV1bR; [6]) | V1bR E/Z ratio EC50 (hV1bR) | reduced potency at V1aR compared to VP (hV1aR [1]; EC50 vs VP) | potency difference between the E and Z isomers at V1bR (photoswitch window) (hV1bR; EC50 E vs Z) | t1/2 (thermal half-life, Figure S50) ([2]; 25 °C) | t1/2 (thermal half-life Z to E) ([2]; 25 °C, HEPES buffer pH 7.4) | t1/2 (thermal half-life, Figure S50) ([2]; 37 °C) | t1/2 (thermal half-life Z to E) ([2]; 37 °C) | agonist activity at V1aR (hV1aR [1]) | EC50 (hV1aR [1]; [7]) | EC50 (hV1aR [1]; [8]) | reduced potency at V1bR compared to VP (hV1bR) | EC50 (hV1bR; [9]) | EC50 (hV1bR; supplementary CSV, read-out: activity Z-isomer V1bR) | PSS (E → Z) [3] | PSS (Z → E) [3] | antagonistic activity at V1aR (hV1aR [4]) | VP displacement (hV1aR [4]) |
| --- | --- | --- | --- | --- | --- | --- | --- | --- | --- | --- | --- | --- | --- | --- | --- | --- | --- | --- | --- | --- |
| NC(=O)CC[C@@H]1NC(=O)[C@H](Cc2ccccc2)NC(=O)[C@H](Cc2ccc(O)cc2)NC(=O)[C@@H](N)CSSC[C@@H](C(=O)NCc2ccc(/N=N\c3ccc(C(=O)NCC(N)=O)cc3)cc2)NC(=O)[C@H](CC(N)=O)NC1=O [Z-13] (H-CYFQNC[X2]G-NH2; disulfide 1-6) | > 10 µM | 52 ± 5% | 7.23 ± 1.57 µM | 1.6 | – | – | – | – | – | – | – | – | – | – | – | – | – | – | – | – |
| N=C(N)NCCC[C@H](NC(=O)c1ccc(/N=N\c2ccc(CNC(=O)[C@@H]3CSSC[C@H](N)C(=O)N[C@@H](Cc4ccc(O)cc4)C(=O)N[C@@H](Cc4ccccc4)C(=O)N[C@@H](CCC(N)=O)C(=O)N[C@@H](CC(N)=O)C(=O)N3)cc2)cc1)C(=O)NCC(N)=O [Z-14] (H-CYFQNC[X2]RG-NH2; disulfide 1-6) | > 10 µM | 67 ± 2% | 2.37 ± 0.607 µM | 2.1 | – | – | – | – | – | – | – | – | – | – | – | – | – | – | – | – |
| N=C(N)NCCC[C@H](NC(=O)[C@@H]1CCCN1C(=O)[C@@H]1CSSC[C@H](N)C(=O)N[C@@H](Cc2ccc(O)cc2)C(=O)N[C@@H](Cc2ccc(/N=N/c3ccccc3)cc2)C(=O)N[C@@H](CCC(N)=O)C(=O)N[C@@H](CC(N)=O)C(=O)N1)C(=O)NCC(N)=O [compound 12, [AzbS^3]-VP] | – | – | – | – | > 1000 fold | 5.3 fold and 5 fold | 72 h | 72 h | 33.6 h | 33.6 h | – | – | – | – | – | – | – | – | – | – |
| NC(=O)CC[C@@H]1NC(=O)[C@H](Cc2ccccc2)NC(=O)[C@H](Cc2ccc(O)cc2)NC(=O)[C@@H](N)CSSC[C@@H](C(=O)NCc2ccc(/N=N/c3ccc(C(=O)NCC(N)=O)cc3)cc2)NC(=O)[C@H](CC(N)=O)NC1=O [compound 13, [AzbL^7/8]-VP] (H-CYFQNC[AMPB(E)]G-NH2; disulfide 1-6) | – | – | – | – | – | – | 12.4 h | 12 h | – | – | complete loss of potency | > 10 µM | > 10 µM | 700–2000 fold | 11.3 ± 1.83 µM | 7.23 ± 1.58 µM | 85% | 79% | some level of antagonistic activity | 76% |
| N=C(N)NCCC[C@H](NC(=O)c1ccc(/N=N/c2ccc(CNC(=O)[C@@H]3CSSC[C@H](N)C(=O)N[C@@H](Cc4ccc(O)cc4)C(=O)N[C@@H](Cc4ccccc4)C(=O)N[C@@H](CCC(N)=O)C(=O)N[C@@H](CC(N)=O)C(=O)N3)cc2)cc1)C(=O)NCC(N)=O [compound 14, [AzbL^7]-VP] (H-CYFQNC[AMPB(E)]RG-NH2; disulfide 1-6) | – | – | – | – | – | – | 33.6 h | 33.6 h | – | – | complete loss of potency | > 10 µM | > 10 µM | 700–2000 fold | 4.97 ± 0.754 µM | – | 81% | 86% | some level of antagonistic activity | 85% |
| [AzbC(o,o)^1,Dap^6]-VP [compound 15] | – | – | – | – | – | – | 64.8 h | 64.8 h | – | – | – | – | – | – | – | – | 88% | 69% | some antagonistic properties | – |
